# Results published in patent US6727253B2, “Treatment of accidental extravasation of anthracyclines” (Antianthra APS, priority 1999, dated 2004).
# Where two headings read alike, the source gives them in different places.
# Experiments:
# [1] = tested on: SC idarubicin induced wounds in mice; settings: for AUC / DW / FW / TTW: Table A
# Description: The mice were euthanized after healing of all wounds.
# […] Half of the groups served a saline controls, whereas in the other half of the groups ICRF-187 250 mg/kg was administered IP at t=0.
# [2] = tested on: extravasation of doxorubicin in a patient; test: Clinical results in a patient with doxorubicin extravasation; format: in vivo
# [3] = Example 9, idarubicin 0.05 mg/kg sc + ICRF-187 250 mg/kg IP at t=0
# [4] = Example 9, idarubicin 0.25 mg/kg sc + ICRF-187 250 mg/kg IP at t=0
# [5] = Example 9, idarubicin 0.75 mg/kg sc + ICRF-187 250 mg/kg IP at t=0
# [6] = idarubicin 0.05 mg/kg SC + DEX 250 mg/kg IP at t=0
# [7] = idarubicin 0.25 mg/kg SC + DEX 250 mg/kg IP at t=0
# [8] = idarubicin 0.75 mg/kg SC + DEX 250 mg/kg IP at t=0, pooled data
# [9] = idarubicin 1.50 mg/kg SC + DEX 250 mg/kg IP at t=0
compound,measurement,setting,value
"C[C@@H](CN1CC(=O)NC(=O)C1)N1CC(=O)NC(=O)C1 [ICRF-187, (+)-1,2-bis(3,5-dioxopiperazinyl-1-yl)propane]",Mean AUC,[1]; [3],4 mm^2 × days
same,Mean DWw ± SEM,[1]; [3],13.0 ± 0.0 days
same,Mean TTWw ± SEM,[1]; [3],12.0 ± 0.0 days
same,Nw/NG,[1]; [3],11%
same,Mean AUC,[1]; [4],38 mm^2 × days
same,Mean DWw ± SEM,[1]; [4],20.0 ± 0.0 days
same,Mean TTWw ± SEM,[1]; [4],6.0 ± 0.0 days
same,Nw/NG,[1]; [4],11%
same,Mean AUC,[1]; [5],44 mm^2 × days
same,Mean DWw ± SEM,[1]; [5],17.5 ± 0.5 days
same,Mean TTWw ± SEM,[1]; [5],8.0 ± 0.0 days
same,Nw/NG,[1]; [5],22%
same,reduction in the AUC,"[1]; Example 9, idarubicin 0.75 mg/kg sc, ICRF-187 250 mg/kg IP vs saline, p<0.05",90%
same,AUC,[1]; [6],4 (± 4) mm^2×days
same,DW,[1]; [6],13.0 (± 0.0) days
same,FW,[1]; [6],11%
same,TTW,[1]; [6],12.0 (± 0.0) days
same,AUC,[1]; [7],38 (± 38) mm^2×days
same,DW,[1]; [7],20.0 (± 0.0) days
same,FW,[1]; [7],11%
same,TTW,[1]; [7],6.0 (± 0.0) days
same,AUC,[1]; [8],42 (± 19) mm^2×days
same,DW,[1]; [8],15.6 (± 2.7) days
same,FW,[1]; [8],28%
same,TTW,[1]; [8],10.2 (± .5) days
same,AUC,[1]; [9],183 (± 54) mm^2×days
same,DW,[1]; [9],17.8 (± 0.9) days
same,FW,[1]; [9],75%
same,TTW,[1]; [9],7.7 (± 0.2) days
same,deaths due to the treatment,"[1]; mouse, in vivo",no deaths due to the treatment
same,ulcer or skin-necrosis,"[2]; 149 mg doxorubicin infused subcutaneously, ICRF-187 day 1-3, 30 days evaluation",No ulcer or signs of skin-necrosis developed
same,side effects from the treatment,"[2]; ICRF-187 1000, 1000, 500 mg/m^2 on day 1, 2, 3, initiated 2 h 30 m after extravasation",no side effects
